{
  "source": "patent US8921362B2",
  "about": "“6,7-dialkoxy quinazoline derivatives and methods of treating drug resistant and other tumors” (Natco Pharma Limited, priority 2008, dated 2014)",
  "assay_in_all_cases": "KinomeScan",
  "format_in_all_cases": "binding",
  "details_in_all_cases": "read-out: % Ctrl @ 10000 nM",
  "key": {"[1]": {"target": "T1, MST3 (Homo sapiens, UniProt Q9Y6E0)", "T1 construct": "host or cells: T7 phage grown in E. coli host derived from BL21", "experimental": "(§1) Kinase assays: Assays were performed as described in Fabian et al. (2005) Nature Biotechnology, vol. 23, p. 329. Kinase-tagged T7 phage strains were grown in parallel in 24 or 96-well blocks in an E. coli host derived from the BL21 strain. E. coli were grown to log-phase and infected with T7 phage from a frozen stock (multiplicity of infection ˜0.1) and incubated with shaking at 32° C. until lysis (−90 minutes). The lysates were centrifuged and filtered to remove cell debris. […] The liganded beads were blocked with excess biotin and washed with blocking buffer (SeaBlock (Pierce), 1% BSA, 0.05% Tween 20, 1 mM DTT) to remove unbound ligand and to reduce non-specific phage binding.\n(§2) Test compounds were prepared as 40× stocks in DMSO and diluted into the aqueous environment. 2.5% DMSO was added to control assays lacking a test compound. All reactions were performed in polystyrene 96-well plates that had been pretreated with blocking buffer in a final volume of 0.04 ml. […] The phage titer in the eluates was measured by quantitative PCR."}, "[2]": {"target": "T2, EPHA6 (Homo sapiens, UniProt Q9UF33)", "T2 construct": "purchased Ambit Biosciences Corp; host or cells: T7 phage in E. coli host derived from BL21", "T2 sequence (Q9UF33 23-1036)": "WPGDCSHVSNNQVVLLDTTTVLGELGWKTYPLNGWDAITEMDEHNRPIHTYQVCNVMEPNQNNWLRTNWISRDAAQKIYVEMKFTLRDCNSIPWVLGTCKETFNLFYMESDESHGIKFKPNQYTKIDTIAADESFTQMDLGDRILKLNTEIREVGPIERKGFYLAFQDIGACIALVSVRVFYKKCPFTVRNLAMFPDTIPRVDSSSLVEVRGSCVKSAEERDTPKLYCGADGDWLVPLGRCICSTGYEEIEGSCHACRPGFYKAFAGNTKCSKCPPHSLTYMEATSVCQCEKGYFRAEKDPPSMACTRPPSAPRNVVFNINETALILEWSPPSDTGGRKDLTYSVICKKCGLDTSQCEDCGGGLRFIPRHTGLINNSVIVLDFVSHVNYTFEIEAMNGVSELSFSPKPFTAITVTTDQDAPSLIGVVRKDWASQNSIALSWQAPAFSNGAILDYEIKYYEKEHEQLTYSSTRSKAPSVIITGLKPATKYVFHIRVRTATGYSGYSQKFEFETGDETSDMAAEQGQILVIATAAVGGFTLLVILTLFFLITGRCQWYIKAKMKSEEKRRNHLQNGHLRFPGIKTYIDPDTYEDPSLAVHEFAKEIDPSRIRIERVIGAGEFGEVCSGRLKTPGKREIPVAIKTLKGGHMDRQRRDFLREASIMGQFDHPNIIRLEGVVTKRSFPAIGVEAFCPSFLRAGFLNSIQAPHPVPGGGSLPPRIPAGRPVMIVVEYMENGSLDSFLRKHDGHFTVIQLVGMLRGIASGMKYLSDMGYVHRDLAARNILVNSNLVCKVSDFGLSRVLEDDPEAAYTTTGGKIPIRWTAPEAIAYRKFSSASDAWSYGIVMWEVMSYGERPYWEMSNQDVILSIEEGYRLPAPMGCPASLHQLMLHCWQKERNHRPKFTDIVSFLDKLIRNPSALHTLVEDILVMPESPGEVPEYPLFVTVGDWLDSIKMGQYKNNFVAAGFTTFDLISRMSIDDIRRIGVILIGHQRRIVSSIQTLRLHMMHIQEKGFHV", "experimental": "as §1, §2"}, "[3]": {"target": "T3, CHEK2 (Homo sapiens, UniProt O96017)", "T3 construct": "host or cells: T7 phage in E. coli host derived from BL21", "experimental": "as §1, §2"}, "[4]": {"target": "T4, PAK2 (Homo sapiens, UniProt Q13177)", "T4 construct": "host or cells: E. coli host derived from BL21, infected with T7 phage", "experimental": "as §1, §2"}, "[5]": {"target": "T5, CSNK1G1 (Homo sapiens, UniProt Q9HCP0)", "T5 construct": "purchased Ambit Biosciences Corp (KinomeScan); host or cells: T7 phage in E. coli host derived from BL21", "experimental": "as §1, §2"}, "[6]": {"target": "T6, TLK2 (Homo sapiens, UniProt Q86UE8)", "T6 construct": "host or cells: E. coli host derived from BL21, T7 phage", "experimental": "as §1, §2"}, "[7]": {"target": "T7, MKNK2 (Homo sapiens, UniProt Q9HBH9)", "T7 construct": "host or cells: T7 phage grown in E. coli host derived from BL21", "experimental": "as §1, §2"}, "[8]": {"target": "T8, FER (Homo sapiens, UniProt P16591)", "T8 construct": "host or cells: T7 phage in E. coli host derived from BL21", "experimental": "as §1, §2"}, "[9]": {"target": "T9, ROS1 (Homo sapiens, UniProt P08922)", "T9 construct": "host or cells: E. coli host derived from BL21, T7 phage display", "experimental": "as §1, §2"}, "[10]": {"target": "T10, JAK2(JH1domain- catalytic) (Homo sapiens, UniProt O60674)", "T10 construct": "JAK2(JH1domain- catalytic); host or cells: T7 phage grown in E. coli host derived from BL21", "experimental": "as §1, §2"}, "[11]": {"target": "T11, MAPKAPK5 (Homo sapiens, UniProt Q8IW41)", "T11 construct": "host or cells: E. coli host derived from the BL21 strain, infected with T7 phage", "experimental": "as §1, §2"}, "[12]": {"target": "T12, WEE1 (Homo sapiens, UniProt P30291)", "T12 construct": "host or cells: E. coli host derived from BL21, T7 phage", "experimental": "as §1, §2"}, "[13]": {"target": "T13, PKAC-alpha (Homo sapiens, UniProt P17612)", "T13 construct": "host or cells: T7 phage in E. coli host derived from BL21", "experimental": "as §1, §2"}, "[14]": {"target": "T14, RPS6KA1(Kin.Dom.-2-C-terminal) (Homo sapiens, UniProt Q15418)", "T14 construct": "RPS6KA1(Kin.Dom.-2-C-terminal); host or cells: E. coli host derived from BL21, T7 phage display", "experimental": "as §1, §2"}, "[15]": {"target": "T15, MARK3 (Homo sapiens, UniProt P27448)", "T15 construct": "host or cells: E. coli host derived from the BL21 strain, infected with T7 phage", "experimental": "as §1, §2"}, "[16]": {"target": "T16, PIK3CB (Homo sapiens, UniProt P42338)", "T16 construct": "host or cells: E. coli host derived from BL21, infected with T7 phage", "experimental": "as §1, §2"}, "[17]": {"target": "T17, MKNK1 (Homo sapiens, UniProt Q9BUB5)", "T17 construct": "host or cells: T7 phage grown in E. coli host derived from BL21", "experimental": "as §1, §2"}, "[18]": {"target": "T18, RPS6KA2(Kin.Dom.-2-C-terminal) (Homo sapiens, UniProt Q15349)", "T18 construct": "RPS6KA2(Kin.Dom.-2-C-terminal); host or cells: E. coli host derived from BL21, T7 phage display", "experimental": "as §1, §2"}, "[19]": {"target": "T19, MRCKB (Homo sapiens, UniProt Q9Y5S2)", "T19 construct": "host or cells: T7 phage grown in E. coli host derived from BL21", "experimental": "as §1, §2"}, "[20]": {"target": "T20, DCAMKL1 (Homo sapiens, UniProt O15075)", "T20 construct": "purchased Ambit Biosciences Corp (KinomeScan); host or cells: T7 phage in E. coli host derived from BL21", "experimental": "as §1, §2"}, "[21]": {"target": "T21, RPS6KA6(Kin.Dom.-2-C-terminal) (Homo sapiens, UniProt Q9UK32)", "T21 construct": "RPS6KA6(Kin.Dom.-2-C-terminal); host or cells: T7 phage grown in E. coli (BL21-derived)", "T21 sequence (Q9UK32 426-683 limits assumed)": "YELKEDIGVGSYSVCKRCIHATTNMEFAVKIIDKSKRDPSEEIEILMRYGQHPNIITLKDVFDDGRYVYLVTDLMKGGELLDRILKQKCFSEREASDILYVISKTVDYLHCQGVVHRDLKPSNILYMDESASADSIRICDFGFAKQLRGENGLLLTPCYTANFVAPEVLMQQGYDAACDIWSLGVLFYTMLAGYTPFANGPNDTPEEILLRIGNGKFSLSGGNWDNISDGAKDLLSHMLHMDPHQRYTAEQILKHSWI", "experimental": "as §1, §2"}, "[22]": {"target": "T22, EPHB1 (Homo sapiens, UniProt P54762)", "T22 construct": "purchased Ambit Biosciences Corp; host or cells: T7 phage in E. coli host derived from BL21", "experimental": "as §1, §2"}, "[23]": {"target": "T23, IGF1R (Homo sapiens, UniProt P08069)", "T23 construct": "host or cells: T7 phage grown in E. coli host derived from BL21", "T23 sequence (P08069 31-1367)": "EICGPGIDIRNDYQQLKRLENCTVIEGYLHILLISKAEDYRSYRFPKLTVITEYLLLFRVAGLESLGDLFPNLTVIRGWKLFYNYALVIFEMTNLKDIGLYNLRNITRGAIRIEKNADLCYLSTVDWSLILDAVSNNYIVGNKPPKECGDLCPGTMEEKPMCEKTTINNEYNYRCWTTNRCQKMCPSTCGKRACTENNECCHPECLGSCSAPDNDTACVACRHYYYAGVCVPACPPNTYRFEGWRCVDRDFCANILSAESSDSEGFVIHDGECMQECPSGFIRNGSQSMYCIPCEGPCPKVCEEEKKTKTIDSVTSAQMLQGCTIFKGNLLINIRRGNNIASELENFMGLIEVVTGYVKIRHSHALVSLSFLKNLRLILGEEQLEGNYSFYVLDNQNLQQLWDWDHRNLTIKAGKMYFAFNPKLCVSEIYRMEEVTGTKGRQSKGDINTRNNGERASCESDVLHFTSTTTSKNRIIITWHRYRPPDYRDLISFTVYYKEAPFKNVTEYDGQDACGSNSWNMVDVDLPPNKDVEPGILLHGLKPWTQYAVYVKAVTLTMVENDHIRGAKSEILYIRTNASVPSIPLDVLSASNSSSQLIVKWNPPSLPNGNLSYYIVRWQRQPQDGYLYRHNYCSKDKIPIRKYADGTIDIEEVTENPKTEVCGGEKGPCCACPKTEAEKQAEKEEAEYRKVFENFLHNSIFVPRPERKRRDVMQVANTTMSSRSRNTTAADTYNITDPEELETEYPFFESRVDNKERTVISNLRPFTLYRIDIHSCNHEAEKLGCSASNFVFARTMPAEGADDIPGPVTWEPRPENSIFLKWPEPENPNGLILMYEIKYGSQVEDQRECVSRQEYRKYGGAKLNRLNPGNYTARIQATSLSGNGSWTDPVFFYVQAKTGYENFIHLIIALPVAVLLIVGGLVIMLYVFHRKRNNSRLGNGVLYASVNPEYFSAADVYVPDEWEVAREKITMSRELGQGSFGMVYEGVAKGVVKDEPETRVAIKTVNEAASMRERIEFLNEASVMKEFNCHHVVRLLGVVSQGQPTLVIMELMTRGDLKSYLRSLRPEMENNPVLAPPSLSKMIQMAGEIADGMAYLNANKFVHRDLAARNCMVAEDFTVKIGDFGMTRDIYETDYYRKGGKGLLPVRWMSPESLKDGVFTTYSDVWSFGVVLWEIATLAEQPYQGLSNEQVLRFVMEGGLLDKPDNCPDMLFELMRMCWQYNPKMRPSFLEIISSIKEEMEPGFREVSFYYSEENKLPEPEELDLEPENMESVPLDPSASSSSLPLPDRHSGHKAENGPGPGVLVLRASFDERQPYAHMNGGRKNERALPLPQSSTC", "experimental": "as §1, §2"}, "[24]": {"target": "T24, ABL1(Q252H) (Homo sapiens, UniProt P00519, Q252H)", "T24 construct": "host or cells: E. coli (BL21-derived), T7 phage lysate", "experimental": "as §1, §2"}, "[25]": {"target": "T25, PIP5K1A (Homo sapiens, UniProt Q99755)", "T25 construct": "host or cells: T7 phage in E. coli host derived from BL21", "experimental": "as §1, §2"}, "[26]": {"target": "T26, CDK11 (Homo sapiens, UniProt Q9BWU1)", "T26 construct": "host or cells: T7 phage in E. coli host derived from BL21", "T26 sequence (Q9BWU1 whole entry)": "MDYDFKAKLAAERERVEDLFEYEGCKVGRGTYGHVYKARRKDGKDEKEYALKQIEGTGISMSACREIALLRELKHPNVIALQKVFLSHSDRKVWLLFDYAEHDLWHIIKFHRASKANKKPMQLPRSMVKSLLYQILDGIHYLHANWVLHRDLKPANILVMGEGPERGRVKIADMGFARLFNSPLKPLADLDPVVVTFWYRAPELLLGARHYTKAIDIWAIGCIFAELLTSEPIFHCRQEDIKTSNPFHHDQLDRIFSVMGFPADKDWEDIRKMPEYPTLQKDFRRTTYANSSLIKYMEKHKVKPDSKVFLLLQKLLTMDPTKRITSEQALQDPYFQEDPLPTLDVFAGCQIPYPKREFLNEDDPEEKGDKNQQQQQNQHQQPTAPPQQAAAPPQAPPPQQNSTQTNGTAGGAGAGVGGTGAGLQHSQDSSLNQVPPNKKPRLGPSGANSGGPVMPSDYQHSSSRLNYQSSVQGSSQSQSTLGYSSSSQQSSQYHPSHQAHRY", "experimental": "as §1, §2"}, "[27]": {"target": "T27, PFTAIRE2 (Homo sapiens, UniProt Q96Q40)", "T27 construct": "host or cells: E. coli host derived from BL21, infected with T7 phage", "T27 sequence (Q96Q40 whole entry)": "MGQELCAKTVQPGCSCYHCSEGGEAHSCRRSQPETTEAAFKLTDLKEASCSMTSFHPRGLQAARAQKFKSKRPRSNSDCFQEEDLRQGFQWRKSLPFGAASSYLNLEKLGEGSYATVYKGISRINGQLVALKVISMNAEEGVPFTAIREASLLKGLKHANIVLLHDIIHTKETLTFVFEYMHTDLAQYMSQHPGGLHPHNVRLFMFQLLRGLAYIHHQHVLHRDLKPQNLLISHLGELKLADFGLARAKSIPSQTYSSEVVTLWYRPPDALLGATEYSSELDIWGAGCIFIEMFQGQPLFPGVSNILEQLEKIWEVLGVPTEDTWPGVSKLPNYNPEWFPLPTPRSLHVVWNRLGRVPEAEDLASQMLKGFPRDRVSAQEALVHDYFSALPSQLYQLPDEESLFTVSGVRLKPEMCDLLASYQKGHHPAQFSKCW", "experimental": "as §1, §2"}, "[28]": {"target": "T28, TGFBR1 (Homo sapiens, UniProt P36897)", "T28 construct": "host or cells: T7 phage grown in E. coli (BL21-derived)", "T28 sequence (P36897 34-503)": "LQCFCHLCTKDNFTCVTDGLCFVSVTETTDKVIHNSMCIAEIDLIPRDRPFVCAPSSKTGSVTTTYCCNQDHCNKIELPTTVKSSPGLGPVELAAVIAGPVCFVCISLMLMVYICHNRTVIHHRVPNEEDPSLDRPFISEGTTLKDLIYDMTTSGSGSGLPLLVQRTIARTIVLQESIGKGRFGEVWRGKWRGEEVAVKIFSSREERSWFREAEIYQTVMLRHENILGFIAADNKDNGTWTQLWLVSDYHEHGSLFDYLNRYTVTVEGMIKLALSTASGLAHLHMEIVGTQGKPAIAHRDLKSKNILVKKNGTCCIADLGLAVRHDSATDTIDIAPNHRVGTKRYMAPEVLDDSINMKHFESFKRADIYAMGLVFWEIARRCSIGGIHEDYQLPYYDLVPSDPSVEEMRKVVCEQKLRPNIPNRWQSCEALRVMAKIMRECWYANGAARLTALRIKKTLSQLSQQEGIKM", "experimental": "as §1, §2"}, "[29]": {"target": "T29, TYK2(JH2domain-pseudokinase) (Homo sapiens, UniProt P29597)", "T29 construct": "TYK2(JH2domain-pseudokinase); host or cells: E. coli host derived from BL21, T7 phage", "experimental": "as §1, §2"}, "[30]": {"target": "T30, EPHA2 (Homo sapiens, UniProt P29317)", "T30 construct": "purchased Ambit Biosciences Corp; host or cells: T7 phage in E. coli host derived from BL21", "T30 sequence (P29317 24-976)": "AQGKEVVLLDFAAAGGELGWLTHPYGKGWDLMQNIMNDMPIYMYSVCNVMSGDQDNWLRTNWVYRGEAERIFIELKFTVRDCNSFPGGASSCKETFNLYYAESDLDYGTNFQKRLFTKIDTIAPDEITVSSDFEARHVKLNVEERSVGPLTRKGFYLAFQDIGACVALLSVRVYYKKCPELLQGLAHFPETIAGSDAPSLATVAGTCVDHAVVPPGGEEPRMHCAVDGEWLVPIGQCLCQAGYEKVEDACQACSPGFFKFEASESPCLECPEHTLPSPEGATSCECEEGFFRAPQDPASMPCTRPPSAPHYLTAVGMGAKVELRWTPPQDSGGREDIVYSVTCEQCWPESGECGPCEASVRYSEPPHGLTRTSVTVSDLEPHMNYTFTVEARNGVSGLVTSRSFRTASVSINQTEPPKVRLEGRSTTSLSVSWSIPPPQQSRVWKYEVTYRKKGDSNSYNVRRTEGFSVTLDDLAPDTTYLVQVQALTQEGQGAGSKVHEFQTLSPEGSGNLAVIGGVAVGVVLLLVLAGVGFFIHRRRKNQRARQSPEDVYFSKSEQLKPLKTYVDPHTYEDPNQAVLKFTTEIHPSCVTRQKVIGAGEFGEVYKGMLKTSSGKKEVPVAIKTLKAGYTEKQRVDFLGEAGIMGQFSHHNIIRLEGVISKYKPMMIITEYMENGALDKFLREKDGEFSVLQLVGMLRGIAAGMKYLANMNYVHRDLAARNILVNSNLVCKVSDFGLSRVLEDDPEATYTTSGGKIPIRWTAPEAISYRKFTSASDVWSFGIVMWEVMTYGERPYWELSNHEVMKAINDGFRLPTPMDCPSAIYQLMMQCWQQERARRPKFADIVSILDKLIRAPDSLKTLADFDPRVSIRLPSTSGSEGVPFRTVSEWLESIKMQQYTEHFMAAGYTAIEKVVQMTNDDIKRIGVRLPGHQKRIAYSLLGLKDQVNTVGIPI", "experimental": "as §1, §2"}},
  "data": [
    {"compound": "C#Cc1cccc(Nc2ncnc3cc(OC)c(OCCCN4CCOCC4)cc23)c1", "note": "[NRC-2694, N-(3-ethynylphenyl)-7-methoxy-6-[3-(4-morpholinyl)propoxy]-4-quinazolinamine]", "values": [
      {"measurement": "remaining binding at 10 µM", "setting": "[1]", "value": 42, "unit": "%"},
      {"measurement": "remaining binding at 10 µM", "setting": "[2]", "value": 25, "unit": "%"},
      {"measurement": "remaining binding at 10 µM", "setting": "[3]", "value": 38, "unit": "%"},
      {"measurement": "remaining binding at 10 µM", "setting": "[4]", "value": 67, "unit": "%"},
      {"measurement": "remaining binding at 10 µM", "setting": "[5]", "value": 55, "unit": "%"},
      {"measurement": "remaining binding at 10 µM", "setting": "[6]", "value": 82, "unit": "%"},
      {"measurement": "remaining binding at 10 µM", "setting": "[7]", "value": 16, "unit": "%"},
      {"measurement": "remaining binding at 10 µM", "setting": "[8]", "value": 94, "unit": "%"},
      {"measurement": "remaining binding at 10 µM", "setting": "[9]", "value": 46, "unit": "%"},
      {"measurement": "remaining binding at 10 µM", "setting": "[10]", "value": 38, "unit": "%"},
      {"measurement": "remaining binding at 10 µM", "setting": "[11]", "value": 79, "unit": "%"},
      {"measurement": "remaining binding at 10 µM", "setting": "[12]", "value": 74, "unit": "%"},
      {"measurement": "remaining binding at 10 µM", "setting": "[13]", "value": 100, "unit": "%"},
      {"measurement": "remaining binding at 10 µM", "setting": "[14]", "value": 49, "unit": "%"},
      {"measurement": "remaining binding at 10 µM", "setting": "[15]", "value": 62, "unit": "%"},
      {"measurement": "remaining binding at 10 µM", "setting": "[16]", "value": 100, "unit": "%"},
      {"measurement": "remaining binding at 10 µM", "setting": "[17]", "value": 1.2, "unit": "%"},
      {"measurement": "remaining binding at 10 µM", "setting": "[18]", "value": 78, "unit": "%"},
      {"measurement": "remaining binding at 10 µM", "setting": "[19]", "value": 71, "unit": "%"},
      {"measurement": "remaining binding at 10 µM", "setting": "[20]", "value": 92, "unit": "%"},
      {"measurement": "remaining binding at 10 µM", "setting": "[21]", "value": 55, "unit": "%"},
      {"measurement": "remaining binding at 10 µM", "setting": "[22]", "value": 72, "unit": "%"},
      {"measurement": "remaining binding at 10 µM", "setting": "[23]", "value": 74, "unit": "%"},
      {"measurement": "remaining binding at 10 µM", "setting": "[24]", "value": 15, "unit": "%"},
      {"measurement": "remaining binding at 10 µM", "setting": "[25]", "value": 61, "unit": "%"},
      {"measurement": "remaining binding at 10 µM", "setting": "[26]", "value": 87, "unit": "%"},
      {"measurement": "remaining binding at 10 µM", "setting": "[27]", "value": 71, "unit": "%"},
      {"measurement": "remaining binding at 10 µM", "setting": "[28]", "value": 83, "unit": "%"},
      {"measurement": "remaining binding at 10 µM", "setting": "[29]", "value": 23, "unit": "%"},
      {"measurement": "remaining binding at 10 µM", "setting": "[30]", "value": 100, "unit": "%"}
    ]}
  ]
}
